According to patent publication US9187411B2, “Leukotriene B4 antagonist compound” (Eli Lilly and Company, priority 2012, dated 2015):
pKi: −log10 of the molar value.

Target: T1, PPARγ (Homo sapiens, UniProt P37231)
T1 construct: made in house; host or cells: Sf9 insect cells (baculovirus), crude cell lysate
T1 sequence (P37231 1-505): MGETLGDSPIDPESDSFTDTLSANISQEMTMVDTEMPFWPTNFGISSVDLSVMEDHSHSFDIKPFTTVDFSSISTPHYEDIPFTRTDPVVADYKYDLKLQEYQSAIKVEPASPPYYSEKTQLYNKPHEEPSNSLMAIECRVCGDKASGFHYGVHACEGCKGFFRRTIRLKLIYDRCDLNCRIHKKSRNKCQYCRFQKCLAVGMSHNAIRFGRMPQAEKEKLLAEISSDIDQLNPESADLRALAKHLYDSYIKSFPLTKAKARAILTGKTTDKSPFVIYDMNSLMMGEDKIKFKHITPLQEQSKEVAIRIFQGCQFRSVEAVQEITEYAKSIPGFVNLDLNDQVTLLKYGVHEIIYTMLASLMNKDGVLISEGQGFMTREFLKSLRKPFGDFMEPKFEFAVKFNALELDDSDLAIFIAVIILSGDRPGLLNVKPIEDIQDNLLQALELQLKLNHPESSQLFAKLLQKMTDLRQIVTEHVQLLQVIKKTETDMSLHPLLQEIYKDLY
T1 sequence (P19793 1-462 partner): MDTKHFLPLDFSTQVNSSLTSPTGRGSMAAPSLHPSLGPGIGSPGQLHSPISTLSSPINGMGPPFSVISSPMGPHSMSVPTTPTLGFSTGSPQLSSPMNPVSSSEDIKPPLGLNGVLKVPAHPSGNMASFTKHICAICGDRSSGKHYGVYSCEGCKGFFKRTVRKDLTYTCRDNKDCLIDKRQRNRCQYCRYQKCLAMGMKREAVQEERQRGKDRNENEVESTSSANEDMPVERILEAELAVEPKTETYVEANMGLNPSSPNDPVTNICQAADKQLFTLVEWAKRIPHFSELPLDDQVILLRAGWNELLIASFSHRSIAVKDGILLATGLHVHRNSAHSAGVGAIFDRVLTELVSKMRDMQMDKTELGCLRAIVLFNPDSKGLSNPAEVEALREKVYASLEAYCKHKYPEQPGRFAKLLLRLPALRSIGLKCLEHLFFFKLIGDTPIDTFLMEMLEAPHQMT
Assay: PPAR gamma binding assay (SPA)
Conditions: n=2, read-out: Ki PPAR γ binding
Source text: The nucleotide sequences encoding full-length PPARα receptor DNA (National Center for Biotechnology Information (NCBI) Reference Sequence NM_005036.4), PPARδ receptor DNA (NCBI Reference Sequence NM_006238.4), PPARγ receptor DNA (NCBI Reference Sequence NM_015869.4) and Retinoid X Receptor (RXR) α DNA (NCBI Reference Sequence NM_002957.4) are synthesized and inserted into pFastBacHTb (Invitrogen) vector in-framed with the N-terminal HIS tag from the vector. […] The protein concentration is determined by Bradford assay using BSA as the standard.
Binding Affinities of Compounds for the PPAR α, δ, γ Receptors are Assessed Using Scintillation Proximity Assay (SPA) Technology.
Biotinylated oligonucleotide(DR2) ^5′[…]^3′ (SEQ ID NO: 1) is used for binding of receptors to Yttrium silicate streptavidin-coated SPA beads (Perkin Elmer). The PPAR α, δ, γ and Retinoid X Receptor (RXR) α receptors (endogenously expressed as heterodimers) are cell lysates from Baculovirus expression systems in Sf9 cells. […] Non-specific binding is determined in the presence of 10000 nM unlabeled GW2331 (Kliewer, S. A. et al Proc. Natl. Acad. Sci. USA (1997), 94: 4318-4323) for the alpha and delta receptors and 2-methyl-2-[4-[3-[propyl[(5-pyridin-2-ylthiophen-2-yl)sulfonyl]amino]-propyl]phenoxy]propanoic (WO 2004/073606) for the gamma receptor. […]

CCCc1c(NC(=O)CC(C)(C)C(=O)[O-])cccc1OCCCOc1cc(O)c(-c2ccc(F)cc2)cc1CC.[Na+] [Example 2, Sodium 4-[[3-[3-[2-ethyl-4-(4-fluorophenyl)-5-hydroxy-phenoxy]propoxy]-2-propyl-phenyl]amino]-2,2-dimethyl-4-oxo-butanoate]
pKi: 5.86
